For 59 compounds, LogP results are on record in patent US12534456B2, “Heterocyclyl pyridines as novel fungicides” (Bayer Aktiengesellschaft, priority 2020, dated 2026).

This data set in a line: physchem. It is filed as physicochemical. The method, then: Measurement of Log P values as provided herein was performed according to EEC directive 79/831 Annex V.A8 by HPLC (High Performance Liquid Chromatography) on reversed phase columns with the following methods: • ^[a]
If more than one Log P value is available within the same method, all the values are given and separated by “+”.
Lambda-max-values were determined using UV-spectra from 200 nm to 400 nm and the peak values of the chromatographic signals
For `FC(F)(F)c1cccc(Oc2cnc(Cl)cc2C2=NOCC(c3ccc(Cl)cc3)N2)c1` (racemic) [Compound I-050], the LogP is 3.99^[a].

Consider `FC(F)(F)c1cccc(Oc2cnc(Cl)cc2C2=NOCC(c3ccc4c(c3)OCCO4)N2)c1` (racemic) [Compound I-052], for which the LogP was 3.48^[a].

Take `FC(F)(F)c1cccc(Oc2cnc(Cl)cc2C2=NOCC(c3ccc4ccccc4c3)N2)c1` (racemic) [Compound I-053]: the LogP was 4.20^[a].

As to `FC(F)(F)c1cccc(Oc2cnc(Cl)cc2C2=NOCC(c3ccc4c(c3)CCC4)N2)c1` (racemic) [Compound I-054], the LogP was 4.41^[a].

On to `FC(F)(F)Oc1ccc(C2CON=C(c3cc(Cl)ncc3Oc3cccc(C(F)(F)F)c3)N2)cc1` (racemic) [Compound I-055], for which the LogP is 4.26^[a].

For `Cc1ccc(CC2CON=C(c3cc(C#N)ncc3Oc3cccc(C(F)(F)F)c3)N2)cc1` (racemic) [Compound I-057], the LogP is 4.12^[a].

In the case of `C=Cc1cc(C2=NOCC(Cc3ccc(C)cc3)N2)c(Oc2cccc(C(F)(F)F)c2)cn1` (racemic) [Compound I-059], the LogP is 4.19^[a].

`Cc1ccc(CC2CON=C(c3cc(C#C[Si](C)(C)C)ncc3Oc3cccc(C(F)(F)F)c3)N2)cc1` (racemic) [Compound I-060]: the LogP is 5.53^[a].

With `CC(=O)c1cc(C2=NOCC(Cc3ccc(C)cc3)N2)c(Oc2cccc(C(F)(F)F)c2)cn1` (racemic) [Compound I-061], the LogP was 4.07^[a].

For `Cc1ccc(CC2CON=C(c3c(Oc4cccc(C(F)(F)F)c4)cnc(Cl)c3F)N2)c(C)c1` (racemic) [Compound I-062], the LogP is 4.66^[a].

Regarding `Cc1ccc(CC2CON=C(c3cc(Cl)ncc3Oc3ccccc3)N2)c(C)c1` (racemic) [Compound I-063], the LogP was 4.17^[a].

Take `CSc1cccc(Oc2cnc(Cl)cc2C2=NOCC(Cc3ccc(C)cc3C)N2)c1` (racemic) [Compound I-064]: the LogP is 4.66^[a].

Turning to `Cc1ccc(CC2CON=C(c3cc(Cl)ncc3Oc3cccc(OC(F)F)c3)N2)c(C)c1` (racemic) [Compound I-065], the LogP was 4.38^[a].

For the compound `Cc1ccc(CC2CON=C(c3cc(Cl)ncc3Oc3cccc(C4CC4)c3F)N2)c(Cl)c1` (racemic) [Compound I-066], the LogP was 5.04^[a].

`COc1cc(C2=NOCC(Cc3ccc(C)cc3Cl)N2)c(Oc2cccc(Cl)c2F)cn1` (racemic) [Compound I-067]: the LogP was 4.51^[a].

In the case of `FC(F)(F)c1cccc(Oc2cnc(Cl)cc2C2=NOCC(Cc3csc(C(F)(F)F)c3)N2)c1` (racemic) [Compound I-068], the LogP is 4.40^[a].

For the compound `Cc1ccc(CC2CON=C(c3cc(C)ncc3Oc3cccc(Cl)c3F)N2)c(Cl)c1` (racemic) [Compound I-069], the LogP was 4.07^[a].

Consider `FC(F)(F)c1cccc(Oc2cnc(Cl)cc2C2=NOCC(c3ccccc3)N2)c1` (racemic) [Compound I-070], for which the LogP is 3.64^[a].

On to `Fc1cccc(Oc2cnc(Cl)cc2C2=NOCC(Cc3ccc(Cl)cc3Cl)N2)c1F` (racemic) [Compound I-071], for which the LogP is 4.40^[a].

With `FC(F)(F)c1cc(Oc2cnc(Cl)cc2C2=NOCC(Cc3ccc(Cl)cc3Cl)N2)cs1` (racemic) [Compound I-072], the LogP is 4.75^[a].

For the compound `C#Cc1ccc(CC2CON=C(c3cc(C#C)ncc3Oc3cccc(C(F)(F)F)c3)N2)c(C)c1` (racemic) [Compound I-074], the LogP was 3.75^[a].

Take `C#Cc1cccc(Oc2cnc(Cl)cc2C2=NOCC(Cc3ccc(C)cc3C)N2)c1` (racemic) [Compound I-075]: the LogP is 4.33^[a].

Consider `Cc1ccc(CC2CON=C(c3cc(Cl)ncc3Oc3ccc(C)c(Cl)c3)N2)c(C)c1` (racemic) [Compound I-076], for which the LogP was 4.97^[a].

On to `COC(=O)Cc1cccc(Oc2cnc(Cl)cc2C2=NOCC(Cc3ccc(C)cc3C)N2)c1` (racemic) [Compound I-078], for which the LogP was 4.08^[a].

Take `Cc1ccc(CC2CON=C(c3cc(Cl)ncc3Oc3cccc(Br)c3F)N2)c(Cl)c1` (racemic) [Compound I-079]: the LogP is 4.70^[a].

For the compound `N#Cc1ccc(C2CON=C(c3cc(Cl)ncc3Oc3cccc(C(F)(F)F)c3)N2)cc1` (racemic) [Compound I-080], the LogP was 3.30^[a].

With `Cc1ccc(CC2CN=C(c3cc(Cl)ncc3Oc3cccc(C(F)(F)F)c3)N2)c(C)c1` (racemic) [Compound I-081], the LogP was 2.64^[a].

As for `Cc1ccc(CC2CON=C(c3cc(Cl)nc(F)c3Oc3cccc(C(F)(F)F)c3)N2)c(C)c1` (racemic) [Compound I-082], the LogP was 4.97^[a].

As for `Cc1cc(Cl)ccc1CC1CON=C(c2cc(Cl)ncc2Oc2cccc(Cl)c2F)N1` (racemic) [Compound I-083], the LogP was 4.59^[a].

In the case of `Cc1ccc(CC2CNN=C(c3cc(Cl)ncc3Oc3cccc(C(F)(F)F)c3)N2)c(C)c1` (racemic) [Compound I-084], the LogP is 2.86^[a].

`Cc1ccc(CC2CON=C(c3cc(Cl)ncc3Oc3cccc(C=O)c3)N2)c(C)c1` (racemic) [Compound I-085]: the LogP is 3.64^[a].

With `Cc1ccc(CC2CON=C(c3cc(Cl)ncc3Oc3ccc4ccccc4c3)N2)c(C)c1` (racemic) [Compound I-086], the LogP was 4.77^[a].

As to `Cc1ccc(CC2CON=C(c3cc(Cl)ncc3Oc3cccc(Cl)c3F)N2)c(Cl)c1` (racemic) [Compound I-087], the LogP was 4.66^[a].

Regarding `Cc1ccc(CC2CON=C(c3cc(Cl)ncc3Oc3cccc(-c4ccccn4)c3)N2)c(C)c1` (racemic) [Compound I-089], the LogP was 3.87^[a].

`FC(F)(F)Sc1cccc(Oc2cnc(Cl)cc2C2=NOCC(Cc3ccc(Cl)cc3Cl)N2)c1` (racemic) [Compound I-090]: the LogP is 5.16^[a].

With `C#Cc1cc(C2=NOCC(Cc3ccc(Br)cc3C)N2)c(Oc2cccc(C(F)(F)F)c2)cn1` (racemic) [Compound I-091], the LogP was 4.19^[a].

As for `CCc1cccc(Oc2cnc(Cl)cc2C2=NOCC(Cc3ccc(C)cc3C)N2)c1` (racemic) [Compound I-092], the LogP is 5.04^[a].

Regarding `Cc1ccc(CC2CON=C(c3cc(Cl)ncc3Oc3cnc4ccccc4c3)N2)c(C)c1` (racemic) [Compound I-093], the LogP is 3.65^[a].

Take `Cc1ccc(CC2CN(C=O)N=C(c3cc(Cl)ncc3Oc3cccc(C(F)(F)F)c3)N2)c(C)c1` (racemic) [Compound I-094]: the LogP was 4.49^[a].

`Cc1ccc(CC2CON=C(c3cc(Cl)ncc3Oc3cccc(S(C)(=O)=O)c3)N2)c(C)c1` (racemic) [Compound I-095]: the LogP was 3.25^[a].

On to `Cn1cc(C2CON=C(c3cc(Cl)ncc3Oc3cccc(C(F)(F)F)c3)N2)c2ccccc21` (racemic) [Compound I-096], for which the LogP was 4.01^[a].

On to `C=Cc1cccc(Oc2cnc(Cl)cc2C2=NOCC(Cc3ccc(Cl)cc3Cl)N2)c1` (racemic) [Compound I-099], for which the LogP was 4.85^[a].

As to `Cc1ccc(CC2CON=C(c3cc(Cl)ncc3Oc3ccc4c(c3)CCC4)N2)c(C)c1` (racemic) [Compound I-100], the LogP is 5.16^[a].

For `Cc1ccc(CC2CON=C(c3cc(Cl)ncc3Oc3cccc(C4CCC4)c3)N2)c(C)c1` (racemic) [Compound I-101], the LogP is 5.50^[a].

Take `Fc1c(Cl)cccc1Oc1cnc(Cl)cc1C1=NOCC(Cc2ccc(Cl)cc2Cl)N1` (racemic) [Compound I-102]: the LogP is 4.71^[a].

On to `Cc1ccc(CC2CON=C(c3cc(Cl)ncc3Oc3cccc(Cl)c3)N2)c(Cl)c1` (racemic) [Compound I-103], for which the LogP was 4.66^[a].

Regarding `Cc1ccc(CC2CON=C(c3cc(Cl)ncc3Oc3cccc(Br)c3)N2)c(C)c1` (racemic) [Compound I-104], the LogP was 4.74^[a].

As for `FC(F)(F)c1cccc(Oc2cnc(Cl)cc2C2=NOCC(Cc3ccc(C(F)(F)F)cc3Cl)N2)c1` (racemic) [Compound I-105], the LogP was 4.84^[a].

`FC(F)(F)c1cccc(Oc2cnc(Cl)cc2C2=NCC(Cc3ccc(Cl)cc3)N2)c1` (racemic) [Compound I-106]: the LogP was 2.45^[a].

`FC(F)(F)c1cccc(Oc2cnc(Cl)cc2C2=NOCCC(c3ccc(Cl)cc3)N2)c1` (racemic) [Compound I-108]: the LogP is 2.12^[a].

As to `Cc1ccc(C2(C)NC(c3cc(Cl)ncc3Oc3cccc(C(F)(F)F)c3)=NO2)cc1` (racemic) [Compound I-109], the LogP was 4.59^[a].

Regarding `Cc1ccc(CC2CON=C(c3cc(Cl)ncc3Oc3cccc(C(F)(F)F)c3)N2)cc1` (racemic) [Compound I-110], the LogP was 4.31^[a].

For the compound `Cc1ccc(CC2CON=C(c3cc(Cl)ncc3Oc3ccc4c(c3)CCO4)N2)c(C)c1` (racemic) [Compound I-111], the LogP was 4.23^[a].

For the compound `CCN(C)c1cc(C2=NOCC(Cc3ccc(C)cc3Cl)N2)c(Oc2cccc(Cl)c2F)cn1` (racemic) [Compound I-112], the LogP is 4.59^[a].

Consider `Cc1ccc(CC2CON=C(c3cc(Cl)ncc3Oc3cccc(C4COC4)c3)N2)c(C)c1` (racemic) [Compound I-113], for which the LogP is 3.68^[a].

For `Cc1ccc(CC2CON=C(c3cc(Cl)ncc3Oc3ccc4c(c3)OC(F)(F)O4)N2)c(C)c1` (racemic) [Compound I-114], the LogP was 4.65^[a].

With `Fc1c(Br)cccc1Oc1cnc(Cl)cc1C1=NOCC(Cc2ccc(Cl)cc2Cl)N1` (racemic) [Compound I-115], the LogP is 4.69^[a].

In the case of `Cc1ccc(CC2CON=C(c3cc(Cl)ncc3Oc3cccc4c3CCC4)N2)c(C)c1` (racemic) [Compound I-116], the LogP was 5.14^[a].

`CC(=O)c1cccc(Oc2cnc(Cl)cc2C2=NOCC(Cc3ccc(C)cc3C)N2)c1` (racemic) [Compound I-117]: the LogP is 3.70^[a].
